Patent publication US7482340B2, “Pyridine derivatives useful for inhibiting sodium/calcium exchange system” (Orion Corporation, priority 2003, dated 2009)

System: guinea-pig papillary muscles
Assay: Inhibition of ouabain-induced arrhythmias (aftercontractions) in guinea-pig papillary muscles
Conditions: 10 μM concentration; guinea-pig papillary muscle paced at 1 Hz, 37° C.
Protocol: The effects of the compounds of the invention were tested on ouabain-induced arrhythmias in guinea-pig papillary muscles.
Guinea-pig papillary muscles were mounted into horizontal muscle cuvette. A hook connected to force transducer was attached to another end of the muscle. Muscle preparations were electrically paced at 1 Hz with field stimulation via platinum electrodes. Modified Tyrode solution was used for superfusion of muscle preparations. The composition of the Tyrode solution was the following (mM): NaCl 135, MgCl2×6H2O 1, KCl 5, CaCl2×2H2O 2, NaHCO3 15, Na2HPO4×2H2O 1, and glucose 10. The Tyrode solution was gassed with carbogen (95% O2, 5% CO2) to set pH at 7.4. Experiments were carried out at 37° C. Acquisition and analysis of twitch tensions with Action Potential and Force Measurement System (ACFO v1.0, Fision Ltd, Finland).
Ouabain by blocking of sodium-potassium ATPase increases intracellular sodium which is changed for calcium via NCX. Increased intracellular calcium is leading to overload of sarcoplasmic reticulum (SR) and spontaneous calcium release from SR inducing delayed […] (DADs). Equivalence for DADs in force signal is aftercontractions (ACs) which are seen as spontaneous twitches after the pacing controlled twitch.
The antiarrhythmic effects of the title compounds of Examples 13, 33, 14a and 14b were examined.

`NCC(=O)Nc1ccc(Oc2ccc3c(c2)CCC(c2ccccc2)O3)nc1` (stereo not shown) [Example 33, 2-Amino-N-[6-(2-phenylchroman-6-yloxy)pyridin-3-yl]acetamide] was tested, and the “inhibition of the emergency of ouabain-induced second aftercontraction” value was “inhibit completely”.
